Experimental data taken from patent US20250388571A1, “AMP-ACTIVATED PROTEIN KINASE MODULATOR COMPOUNDS AND USES THEREOF” (Biolexis Therapeutics, Inc., priority 2024, published 2025).
Like-named read-outs stand apart in the source and are kept apart here.

How the values were obtained:
[1] = PK oral bioavailability experiment, rat; assay type: in vivo, male Wistar rat
Protocol: A total of 18 male Wistar rats were allotted for the study. Animals were allotted in to 2 groups of 9 rat per each group. In each group, first set of three animals were used for PK study, next set of three and followed by other set of three animals were used for 0.5 h and 1 h brain, CSF, and blood collection purpose for intravenous and oral groups, respectively. On day of dosing all the animals were fasted overnight.
Approximately 0.3 mL of blood sample from each animal was collected via jugular vein at predetermined time points at 0.083 (only IV), 0.25, 0.5, 1, 2, 4, 6, 8 and 24 h intervals in pre-labeled Eppendorf tubes containing anticoagulant K2EDTA (20 μL per mL of blood). Blood sample was centrifuged at 5000 rpm for 10 min under refrigeration (2-4° C.) to obtain plasma. For brain and CSF uptake study, after 0.5 h and 1 h CSF and whole brain was withdrawn, and brain tissue was homogenized as a terminal sampling. Blood samples were centrifuged under refrigeration (2-4° C.) within 0.5 h to obtain plasma. The separated plasma samples were collected in pre labeled tubes within 60 min of separation and stored at −20° C. up to 24 h. Post 24 h sample collection, all plasma samples were transferred to deep freezer custodian to store below or at −70° C. till shipment.
Brain tissues were blotted and dried and then transferred to 15 mL falcon tubes. Initially all tissue samples were stored at −20±3° C. Later, all brain tissue samples were homogenized with PBS at 1:4 ratio and the Brain homogenate was transferred to Deep freezer (−70±10° C.) and stored until bioanalysis.
The PK parameters were evaluated using Phoenix WinNonlin® Ent-Version 8.3 by non-compartmental analysis.

db/db mice = settings: for Plasma Cholesterol / Plasma HDL / Plasma LDL / Plasma Triglyceride: end of the study; for Absolute Liver Weight / Absolute Liver Weight (g) [table follows b2014 on epididymal adipose tissue weight] / Relative Epididymal Tissue Weight / Relative Liver Weight: necropsy; for Fasting Plasma Glucose (mg/dL), OGTT: OGTT day 21, before glucose load 1 gram/kg
Protocol: The doses of the test item to be administered were calculated daily in mg/kg based on the latest bodyweight of the animal. The dose volume was calculated based on mg/kg of body weight and adjusted with each bodyweight collection. Dose and route of the test compounds administration are selected as per the supporting literature.
Male db/db mice were procured from The Jackson Laboratory. All the animals were allowed to quarantine for 7 days and acclimatize for one day prior to experiment initiation. During this period, mice were observed daily once for clinical signs. On Day 1, Animals were randomized based on body weight and blood glucose levels (Accu-Chek) into three groups. […] During the study period the body weight of mice was recorded weekly thrice, and clinical scoring was done on daily basis. The OGTT was performed on day 21. On day 36 blood was collected and centrifuged at 4° C., 10,000 RPM for 10 minutes for plasma collection. The plasma stored at −80° C. for estimation of plasma HDL and LDL. All the animals were humanely sacrificed by CO2. At the time of necropsy liver, adipose tissue and pancreas weight were taken. The liver and pancreas were stored at −80° C.
A mixture of DMSO (2%), Cremophor EL (2%), Tween 80 (1%), 0.5% methyl cellulose (35%), and water (60%) was used for the formulation. Doses were prepared at concentrations of 30 and 50 mg/kg. Administration was oral, daily for 36 days. Male mice (Mus musculus; db/db C57BL/6) aged 8-9 weeks and weighing less than or equal to 40 grams were used for the study. Groups were assigned 10 mice per group.
During the study period body weight of mice were recorded weekly thrice and clinical scoring were done on daily basis. The OGTT was performed on day 21. On day 36 blood was collected and centrifuged at 4° C., 10000 RPM for 10 minutes for plasma collection. The plasma stored at −80° C. for estimation of plasma HDL and LDL. All the animals were humanely sacrificed by CO2. At the time of necropsy liver, adipose tissue and pancreas weight were taken. Liver and pancreas were stored at −80° C.
Cage-side observations were made to detect any changes and general activity of the animals.
Body weight of each mouse was recorded at the time of randomization and thrice a week during study period. OGTT were done at day 21. On day 20 mice were fasted over night and on day 21 mice were treated with respective treatment-60 minute prior to glucose load 1 gram/kg. Plasma glucose was measured at 0 min (before glucose load), 15 min, 30 min, 60 min, 90 min and 120 min.
Glucose estimation in urine was done at terminal point on day 32. The urine of individual mice was collected by placing the mice in metabolic cages. Urine glucose levels were measured by calorimetric method in collected urine.
Plasma lipid profile: Triglyceride, HDL and LDL were performed at the end of the study by appropriate kit or using Fully Auto Biochemistry Analyzer Selectra PRO M Lite. Fat pad weight was recorded at terminal point. Fructosamine were measured by ELISA kit (Biomol, G-MOEB2562.96).
All data is expressed as mean±SEM unless otherwise noted. Statistical analysis was done with GraphPad Prism-5 using one-way ANOVA followed by Dunnett's test/Tukey's post hoc test. Data were considered statistically significant if P value is less than 0.05.

HCM cells = assay: CyQUANT Cytotoxicity Assay (G6PD assay), HCM; settings: treated 2 hours

For O=c1[nH]c(-c2c[nH]c3cc(F)c(-c4ccc(C5(O)CCC5)cc4)c(F)c23)no1 [Compound I-11, 3-(4,6-difluoro-5-(4-(1-hydroxycyclobutyl)phenyl)-1H-indol-3-yl)-1,2,4-oxadiazol-5(4H)-one], the “systemic exposure following oral administration” value ([1]; 5 mg/kg oral) was “low systemic exposure”, the “concentrations in brain tissue” value ([1]; 0.5 h and 1 h) was “no concentrations in brain tissue” and the bioavailability ([1]; male, Wistar, plasma, 5 mg/kg oral vs 1 mg/kg intravenous) was 6%. The “Fasting Fructosamine” value (db/db mice; 30 mg/kg p.o. QD) was 1164.8 ± 105.5 ng/mL, the “Fasting Plasma HbA1c” value (db/db mice; 30 mg/kg p.o. QD) was 60.13 ± 7.73 ng/mL and the “Fasting Plasma Insulin” value (db/db mice; 30 mg/kg p.o. QD) was 4.6 ± 0.5 ng/mL. For the same compound, the “Fasting Blood Glucose (~12 hrs)” value (db/db mice; 30 mg/kg p.o. QD, Day 36) was 335.70 ± 16.88 mg/dL, the “Urine Glucose” value (db/db mice; 30 mg/kg p.o. QD, day 32) was 1694.43 ± 10.56 mg/dL and the “Plasma Cholesterol” value (db/db mice; 30 mg/kg p.o. QD) was 118.13 ± 8.39 mg/dL. For the same compound, the “Plasma HDL” value (db/db mice; 30 mg/kg p.o. QD) was 145.41 ± 11.48 mg/dL, the “Plasma LDL” value (db/db mice; 30 mg/kg p.o. QD) was 23.58 ± 2.93 mg/dL and the “Plasma Triglyceride” value (db/db mice; 30 mg/kg p.o. QD) was 156.87 ± 17.41 mg/dL. For the same compound, the “Absolute Liver Weight” value (db/db mice; 30 mg/kg p.o. QD) was 2.34 ± 0.07 g, the “Absolute Liver Weight (g) [table follows b2014 on epididymal adipose tissue weight]” value (db/db mice; 30 mg/kg p.o. QD) was 2.42 ± 0.10 g and the “Relative Epididymal Tissue Weight” value (db/db mice; 30 mg/kg p.o. QD) was 0.057 ± 0.002 g. For the same compound, the “Relative Liver Weight” value (db/db mice; 30 mg/kg p.o. QD) was 0.055 ± 0.001 g, the “15 min Plasma Glucose (mg/dL), OGTT” value (db/db mice; 30 mg/kg, OGTT day 21) was 676.20 ± 19.94 mg/dL and the “30 min Plasma Glucose (mg/dL), OGTT” value (db/db mice; 30 mg/kg, OGTT day 21) was 619.54 ± 26.68 mg/dL. For the same compound, the “60 min Plasma Glucose (mg/dL), OGTT” value (db/db mice; 30 mg/kg, OGTT day 21) was 520.87 ± 46.63 mg/dL, the “120 min Plasma Glucose (mg/dL), OGTT” value (db/db mice; 30 mg/kg, OGTT day 21) was 397.78 ± 9.65 mg/dL and the “glucose area under the curve (AUC), OGTT” value (db/db mice; 30 mg/kg, OGTT day 21) was 61613.10 ± 2572.98 mg·min/dL. The “Fasting Plasma Glucose (mg/dL), OGTT” value (db/db mice; 30 mg/kg) was 287.70 ± 34.54 mg/dL, the “decrease in the plasma glucose compared to vehicle control (OGTT)” value (db/db mice; 30 mg/kg, statistically not significant) was 7.5% and the “Fasting Fructosamine” value (db/db mice; 50 mg/kg p.o. QD) was 954.2 ± 45.6 ng/mL. For the same compound, the “Fasting Plasma HbA1c” value (db/db mice; 50 mg/kg p.o. QD) was 39.82 ± 4.31 ng/mL, the “Fasting Plasma Insulin” value (db/db mice; 50 mg/kg p.o. QD) was 5.2 ± 0.8 ng/mL and the “Plasma Cholesterol” value (db/db mice; 50 mg/kg p.o. QD) was 97.30 ± 8.76 mg/dL. For the same compound, the “Plasma HDL” value (db/db mice; 50 mg/kg p.o. QD) was 110.76 ± 9.17 mg/dL, the “Plasma LDL” value (db/db mice; 50 mg/kg p.o. QD) was 14.78 ± 1.62 mg/dL and the “Plasma Triglyceride” value (db/db mice; 50 mg/kg p.o. QD) was 97.55 ± 11.60 mg/dL. For the same compound, the “Absolute Liver Weight” value (db/db mice; 50 mg/kg p.o. QD) was 2.34 ± 0.06 g, the “Absolute Liver Weight (g) [table follows b2014 on epididymal adipose tissue weight]” value (db/db mice; 50 mg/kg p.o. QD) was 2.58 ± 0.07 g and the “Relative Epididymal Tissue Weight” value (db/db mice; 50 mg/kg p.o. QD) was 0.061 ± 0.001 g. The “Relative Liver Weight” value (db/db mice; 50 mg/kg p.o. QD) was 0.056 ± 0.001 g, the “15 min Plasma Glucose (mg/dL), OGTT” value (db/db mice; 50 mg/kg, OGTT day 21) was 670.72 ± 23.88 mg/dL and the “30 min Plasma Glucose (mg/dL), OGTT” value (db/db mice; 50 mg/kg, OGTT day 21) was 560.85 ± 37.42 mg/dL. For the same compound, the “60 min Plasma Glucose (mg/dL), OGTT” value (db/db mice; 50 mg/kg, OGTT day 21) was 485.98 ± 32.31 mg/dL, the “120 min Plasma Glucose (mg/dL), OGTT” value (db/db mice; 50 mg/kg, OGTT day 21) was 378.40 ± 18.24 mg/dL and the “glucose area under the curve (AUC), OGTT” value (db/db mice; 50 mg/kg, OGTT day 21) was 57436.00 ± 2283.79 mg·min/dL. The “Fasting Plasma Glucose (mg/dL), OGTT” value (db/db mice; 50 mg/kg) was 204.64 ± 29.60 mg/dL, the “decrease in the plasma glucose compared to vehicle control (OGTT)” value (db/db mice; 50 mg/kg, significant) was 14% and the “fasting blood glucose levels compared with vehicle control, dose dependence” value (db/db mice; 30 & 50 mg/kg p.o. QD, day 21, 28, and 36) was “dose-dependent decrease”. For the same compound, the “clinical signs, morbidity, mortality” value (db/db mice; 30 and 50 mg/kg oral, daily for 36 days) was “no observations of clinical signs or morbidity, and no mortality”, the “glucose as measured by area under the curve (AUC), dose dependence” value (db/db mice; 30 and 50 mg/kg, OGTT day 21) was “dose dependent decreases” and the “toxicity compared to reference compounds MK-8722 and PF-06409577 (G6PD release)” value (HCM cells) was “less toxicity”.
